Holding throughout (experiment): Z'-LYTE kinase panel
Type in all cases: biochemical

In one assay the target is T1, EPHB1 (Homo sapiens, UniProt P54762).
T1 construct: purchased ThermoFisher (SelectScreen, Z'-LYTE)
T1 sequence (P54762 18-984): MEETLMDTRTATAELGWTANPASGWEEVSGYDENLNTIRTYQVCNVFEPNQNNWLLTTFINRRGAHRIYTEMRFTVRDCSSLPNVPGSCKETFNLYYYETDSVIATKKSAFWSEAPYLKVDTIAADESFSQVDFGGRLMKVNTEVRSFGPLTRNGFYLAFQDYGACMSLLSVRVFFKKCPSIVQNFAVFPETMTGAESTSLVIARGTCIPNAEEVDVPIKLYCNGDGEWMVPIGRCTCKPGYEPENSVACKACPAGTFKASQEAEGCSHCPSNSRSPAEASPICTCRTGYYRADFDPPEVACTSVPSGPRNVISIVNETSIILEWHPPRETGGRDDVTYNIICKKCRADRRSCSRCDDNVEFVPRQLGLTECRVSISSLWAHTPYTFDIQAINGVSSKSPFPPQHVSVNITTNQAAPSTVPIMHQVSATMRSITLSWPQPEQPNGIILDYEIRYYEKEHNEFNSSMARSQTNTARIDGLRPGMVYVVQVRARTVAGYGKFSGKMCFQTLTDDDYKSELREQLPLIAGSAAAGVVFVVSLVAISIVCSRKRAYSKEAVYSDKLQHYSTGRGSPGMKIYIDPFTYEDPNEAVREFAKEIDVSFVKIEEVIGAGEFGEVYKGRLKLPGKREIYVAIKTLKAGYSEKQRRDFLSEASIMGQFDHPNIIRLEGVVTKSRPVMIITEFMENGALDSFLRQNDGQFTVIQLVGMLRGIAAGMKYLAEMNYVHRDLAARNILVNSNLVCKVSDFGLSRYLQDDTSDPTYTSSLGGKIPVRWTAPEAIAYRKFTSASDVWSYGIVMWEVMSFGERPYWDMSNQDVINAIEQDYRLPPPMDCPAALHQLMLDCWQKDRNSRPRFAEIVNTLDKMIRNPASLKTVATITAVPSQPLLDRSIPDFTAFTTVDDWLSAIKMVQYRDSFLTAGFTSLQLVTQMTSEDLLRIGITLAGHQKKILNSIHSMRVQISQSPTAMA
An outline of the steps:
(§1)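 Activity is reported as percent inhibition at one concentration, 10 µM, determined by the standard Z′-LYTE kinase assay across 225 panel kinases.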

The next assay concerns the target T2, EPHB4 (Homo sapiens, UniProt P54760).
T2 construct: purchased ThermoFisher (SelectScreen, Z'-LYTE)
T2 sequence (P54760 16-987): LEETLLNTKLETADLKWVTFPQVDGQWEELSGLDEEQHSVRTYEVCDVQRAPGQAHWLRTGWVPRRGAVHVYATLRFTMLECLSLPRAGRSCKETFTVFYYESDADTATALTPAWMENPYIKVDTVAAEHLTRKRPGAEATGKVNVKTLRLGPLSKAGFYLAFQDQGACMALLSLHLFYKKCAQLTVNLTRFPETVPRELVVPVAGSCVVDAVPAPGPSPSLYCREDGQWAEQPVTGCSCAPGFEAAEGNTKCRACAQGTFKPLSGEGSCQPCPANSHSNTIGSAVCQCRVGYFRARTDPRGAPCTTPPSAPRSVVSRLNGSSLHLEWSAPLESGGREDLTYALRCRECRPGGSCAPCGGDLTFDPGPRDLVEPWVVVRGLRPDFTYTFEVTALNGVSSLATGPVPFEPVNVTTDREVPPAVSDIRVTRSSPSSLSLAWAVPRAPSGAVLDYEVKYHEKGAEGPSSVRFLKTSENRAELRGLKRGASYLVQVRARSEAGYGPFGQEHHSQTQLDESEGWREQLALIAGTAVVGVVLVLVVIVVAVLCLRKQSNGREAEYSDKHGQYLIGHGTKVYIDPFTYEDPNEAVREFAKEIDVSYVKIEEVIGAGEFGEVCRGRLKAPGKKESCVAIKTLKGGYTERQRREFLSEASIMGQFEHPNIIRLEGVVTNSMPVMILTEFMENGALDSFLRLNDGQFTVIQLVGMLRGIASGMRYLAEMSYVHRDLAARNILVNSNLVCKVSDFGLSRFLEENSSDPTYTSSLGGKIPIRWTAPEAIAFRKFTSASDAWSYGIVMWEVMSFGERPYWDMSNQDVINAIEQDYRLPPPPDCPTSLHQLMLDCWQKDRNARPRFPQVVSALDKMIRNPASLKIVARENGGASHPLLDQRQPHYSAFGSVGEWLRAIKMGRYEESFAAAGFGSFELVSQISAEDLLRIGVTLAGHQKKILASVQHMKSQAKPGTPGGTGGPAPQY
Put shortly: as §1

A further assay deals with T3, MAP4K4 (HGK) (Homo sapiens, UniProt O95819).
T3 construct: purchased ThermoFisher (SelectScreen, Z'-LYTE)
T3 sequence (O95819 whole entry): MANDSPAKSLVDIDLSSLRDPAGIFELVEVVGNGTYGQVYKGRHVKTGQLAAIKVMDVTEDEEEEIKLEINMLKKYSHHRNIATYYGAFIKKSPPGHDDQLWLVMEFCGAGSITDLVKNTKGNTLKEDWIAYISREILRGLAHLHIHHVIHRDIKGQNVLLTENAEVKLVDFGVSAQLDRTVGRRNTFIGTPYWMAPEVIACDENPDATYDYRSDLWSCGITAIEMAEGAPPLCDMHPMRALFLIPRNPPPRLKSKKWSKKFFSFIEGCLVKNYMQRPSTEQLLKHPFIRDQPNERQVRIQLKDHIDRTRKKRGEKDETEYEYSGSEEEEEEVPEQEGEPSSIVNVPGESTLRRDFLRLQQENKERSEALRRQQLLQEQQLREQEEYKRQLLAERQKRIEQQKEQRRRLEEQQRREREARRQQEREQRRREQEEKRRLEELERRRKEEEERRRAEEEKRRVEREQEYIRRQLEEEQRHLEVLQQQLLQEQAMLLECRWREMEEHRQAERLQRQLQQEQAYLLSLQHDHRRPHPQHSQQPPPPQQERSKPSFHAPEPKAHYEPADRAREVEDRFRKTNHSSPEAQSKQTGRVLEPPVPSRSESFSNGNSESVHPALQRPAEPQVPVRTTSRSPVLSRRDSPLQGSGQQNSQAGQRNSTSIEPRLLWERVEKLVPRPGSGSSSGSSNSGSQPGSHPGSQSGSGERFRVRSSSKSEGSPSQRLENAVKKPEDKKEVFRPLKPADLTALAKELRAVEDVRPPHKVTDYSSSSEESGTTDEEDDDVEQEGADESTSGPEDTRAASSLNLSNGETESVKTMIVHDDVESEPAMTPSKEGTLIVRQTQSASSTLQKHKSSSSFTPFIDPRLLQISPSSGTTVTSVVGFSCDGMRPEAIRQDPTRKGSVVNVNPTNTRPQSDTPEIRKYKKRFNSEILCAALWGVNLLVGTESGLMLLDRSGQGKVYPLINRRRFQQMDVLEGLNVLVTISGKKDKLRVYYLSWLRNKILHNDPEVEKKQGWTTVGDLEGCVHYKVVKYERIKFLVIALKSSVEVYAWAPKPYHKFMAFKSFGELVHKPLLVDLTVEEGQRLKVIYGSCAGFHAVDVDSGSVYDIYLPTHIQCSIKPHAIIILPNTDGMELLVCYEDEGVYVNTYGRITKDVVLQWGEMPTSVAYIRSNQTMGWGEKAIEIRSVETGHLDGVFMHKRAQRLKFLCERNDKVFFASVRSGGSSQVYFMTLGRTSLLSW
Put shortly:
as §1

In another assay the target is T4, MAP4K5 (KHS1) (Homo sapiens, UniProt Q9Y4K4).
T4 construct: purchased ThermoFisher (SelectScreen, Z'-LYTE)
T4 sequence (Q9Y4K4 whole entry): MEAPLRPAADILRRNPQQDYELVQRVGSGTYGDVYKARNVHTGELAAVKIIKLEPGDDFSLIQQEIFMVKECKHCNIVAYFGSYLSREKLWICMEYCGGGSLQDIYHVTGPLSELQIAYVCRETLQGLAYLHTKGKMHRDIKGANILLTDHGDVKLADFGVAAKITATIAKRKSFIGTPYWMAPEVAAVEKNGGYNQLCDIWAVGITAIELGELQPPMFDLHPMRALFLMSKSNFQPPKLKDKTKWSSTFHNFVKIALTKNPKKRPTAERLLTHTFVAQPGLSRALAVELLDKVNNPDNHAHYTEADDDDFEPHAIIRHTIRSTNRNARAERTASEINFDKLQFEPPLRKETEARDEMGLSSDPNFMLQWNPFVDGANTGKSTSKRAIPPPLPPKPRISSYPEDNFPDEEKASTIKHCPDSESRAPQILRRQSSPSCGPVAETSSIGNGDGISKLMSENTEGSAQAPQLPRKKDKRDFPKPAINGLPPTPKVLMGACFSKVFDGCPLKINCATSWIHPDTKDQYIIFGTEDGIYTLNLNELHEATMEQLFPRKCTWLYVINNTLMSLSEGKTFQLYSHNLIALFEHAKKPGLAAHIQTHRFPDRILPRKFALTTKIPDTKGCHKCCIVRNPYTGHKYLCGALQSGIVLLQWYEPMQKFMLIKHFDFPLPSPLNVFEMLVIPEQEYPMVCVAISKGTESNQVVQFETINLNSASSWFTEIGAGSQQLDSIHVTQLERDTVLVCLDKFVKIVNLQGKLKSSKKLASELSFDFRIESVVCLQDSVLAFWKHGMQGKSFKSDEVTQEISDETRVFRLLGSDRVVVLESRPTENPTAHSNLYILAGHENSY
An outline of the steps:
as §1

The target of another assay is T5, MAPKAPK3 (Homo sapiens, UniProt Q16644).
T5 construct: purchased ThermoFisher (SelectScreen, Z'-LYTE)
T5 sequence (Q16644 whole entry): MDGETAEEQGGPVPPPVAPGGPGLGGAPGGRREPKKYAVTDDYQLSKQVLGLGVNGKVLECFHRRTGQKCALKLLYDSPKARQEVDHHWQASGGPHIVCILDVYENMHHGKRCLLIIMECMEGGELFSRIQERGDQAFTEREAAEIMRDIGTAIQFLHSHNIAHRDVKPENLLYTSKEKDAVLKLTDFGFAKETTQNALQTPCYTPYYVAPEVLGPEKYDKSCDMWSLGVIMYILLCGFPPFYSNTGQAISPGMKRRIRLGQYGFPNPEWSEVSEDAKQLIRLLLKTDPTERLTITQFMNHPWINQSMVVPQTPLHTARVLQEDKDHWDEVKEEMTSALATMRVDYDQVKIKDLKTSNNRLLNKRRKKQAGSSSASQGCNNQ
Put shortly: as §1

Another assay has as its target T6, NEK6 (Homo sapiens, UniProt Q9HC98).
T6 construct: purchased ThermoFisher (SelectScreen, Z'-LYTE)
An outline of the steps:
as §1

The target of the next assay is T7, RPS6KA1 (RSK1) (Homo sapiens, UniProt Q15418).
T7 construct: purchased ThermoFisher (SelectScreen, Z'-LYTE)
T7 sequence (Q15418 whole entry): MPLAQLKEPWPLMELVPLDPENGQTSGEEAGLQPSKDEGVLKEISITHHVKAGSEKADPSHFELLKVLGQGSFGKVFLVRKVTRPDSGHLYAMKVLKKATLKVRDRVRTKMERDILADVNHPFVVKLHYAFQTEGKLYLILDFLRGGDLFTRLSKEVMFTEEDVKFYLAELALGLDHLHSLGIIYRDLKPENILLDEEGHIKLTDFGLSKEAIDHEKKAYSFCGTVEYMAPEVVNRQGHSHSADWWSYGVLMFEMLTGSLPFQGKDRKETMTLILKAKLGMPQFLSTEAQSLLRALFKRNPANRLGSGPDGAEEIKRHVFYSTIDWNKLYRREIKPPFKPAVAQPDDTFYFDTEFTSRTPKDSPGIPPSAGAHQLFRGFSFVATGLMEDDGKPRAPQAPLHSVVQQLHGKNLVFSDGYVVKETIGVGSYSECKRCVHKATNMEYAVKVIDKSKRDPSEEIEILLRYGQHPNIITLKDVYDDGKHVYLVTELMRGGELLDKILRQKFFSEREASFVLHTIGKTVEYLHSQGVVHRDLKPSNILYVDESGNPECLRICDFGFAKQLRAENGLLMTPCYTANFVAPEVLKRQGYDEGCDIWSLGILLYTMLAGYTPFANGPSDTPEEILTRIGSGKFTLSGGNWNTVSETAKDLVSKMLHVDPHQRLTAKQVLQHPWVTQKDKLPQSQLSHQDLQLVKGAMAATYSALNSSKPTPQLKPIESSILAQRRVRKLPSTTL
Put shortly: as §1

Another assay concerns the target T8, RPS6KA2 (RSK3) (Homo sapiens, UniProt Q15349).
T8 construct: purchased ThermoFisher (SelectScreen, Z'-LYTE)
Put shortly: as §1

Another assay deals with T9, SGKL (SGK3) (Homo sapiens, UniProt Q96BR1).
T9 construct: purchased ThermoFisher (SelectScreen, Z'-LYTE)
T9 sequence (Q96BR1 1-496): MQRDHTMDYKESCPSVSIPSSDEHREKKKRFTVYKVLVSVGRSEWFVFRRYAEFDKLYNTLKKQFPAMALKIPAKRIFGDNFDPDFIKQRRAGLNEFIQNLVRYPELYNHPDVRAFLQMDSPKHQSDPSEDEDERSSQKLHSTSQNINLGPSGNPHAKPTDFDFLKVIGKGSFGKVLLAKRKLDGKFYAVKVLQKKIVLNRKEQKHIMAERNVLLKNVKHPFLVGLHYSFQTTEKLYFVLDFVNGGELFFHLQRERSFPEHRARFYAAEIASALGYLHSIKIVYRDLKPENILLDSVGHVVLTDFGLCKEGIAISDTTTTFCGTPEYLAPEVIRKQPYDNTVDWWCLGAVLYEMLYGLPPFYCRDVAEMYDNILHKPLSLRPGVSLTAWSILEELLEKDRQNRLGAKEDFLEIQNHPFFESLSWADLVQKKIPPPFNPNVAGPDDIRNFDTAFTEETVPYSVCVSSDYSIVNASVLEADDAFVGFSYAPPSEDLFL
Put shortly:
as §1

T6 sequence (Q9HC98 whole entry): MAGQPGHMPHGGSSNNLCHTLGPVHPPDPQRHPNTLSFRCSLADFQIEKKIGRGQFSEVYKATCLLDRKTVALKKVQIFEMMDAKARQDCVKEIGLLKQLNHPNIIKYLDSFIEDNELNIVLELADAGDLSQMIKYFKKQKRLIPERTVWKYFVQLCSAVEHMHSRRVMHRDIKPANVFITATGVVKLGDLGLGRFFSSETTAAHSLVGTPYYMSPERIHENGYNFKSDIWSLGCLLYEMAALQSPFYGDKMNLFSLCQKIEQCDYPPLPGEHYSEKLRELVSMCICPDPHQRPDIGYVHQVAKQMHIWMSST
T8 sequence (Q15349 whole entry): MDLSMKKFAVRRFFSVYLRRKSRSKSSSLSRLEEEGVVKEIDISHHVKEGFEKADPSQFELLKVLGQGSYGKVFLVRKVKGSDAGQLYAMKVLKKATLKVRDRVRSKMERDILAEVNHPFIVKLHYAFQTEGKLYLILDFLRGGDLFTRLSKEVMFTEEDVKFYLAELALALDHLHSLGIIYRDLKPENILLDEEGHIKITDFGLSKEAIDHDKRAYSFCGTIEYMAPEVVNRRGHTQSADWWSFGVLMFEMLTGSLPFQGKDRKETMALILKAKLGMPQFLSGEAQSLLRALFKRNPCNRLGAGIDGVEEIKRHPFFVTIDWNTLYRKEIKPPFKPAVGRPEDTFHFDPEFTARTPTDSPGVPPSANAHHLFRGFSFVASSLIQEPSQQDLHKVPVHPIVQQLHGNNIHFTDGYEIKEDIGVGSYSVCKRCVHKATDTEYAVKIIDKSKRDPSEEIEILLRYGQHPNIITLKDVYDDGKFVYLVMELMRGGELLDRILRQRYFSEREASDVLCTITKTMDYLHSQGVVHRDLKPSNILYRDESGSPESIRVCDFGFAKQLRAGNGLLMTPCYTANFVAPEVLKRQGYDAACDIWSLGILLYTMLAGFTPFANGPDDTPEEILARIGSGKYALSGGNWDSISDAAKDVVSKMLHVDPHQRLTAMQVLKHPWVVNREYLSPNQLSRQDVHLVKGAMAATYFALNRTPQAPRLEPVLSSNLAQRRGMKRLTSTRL

Regarding `Cc1ncc(-c2nc(Nc3ccc(C(=O)NCCN4CCCCC4)cc3)ncc2F)n1C(C)C` [Compound 3], the inhibition at 10 µM at EPHB1 was found to be 94%; against EPHB4, 83%; against MAP4K4 (HGK), 84%; on MAP4K5 (KHS1) it was 97%; against MAPKAPK3 it was 18%; at NEK6, 12%. Moreover, the results for the inhibition at 10 µM at RPS6KA1 (RSK1), at RPS6KA2 (RSK3) and on SGKL (SGK3) were 69%, 90% and 67%, respectively.

In the case of `Cc1cc(Nc2nc(N)nn2C(=O)NC(C)C)ccc1Cl` [Compound 5], the inhibition at 10 µM was 7.51% at EPHB1; 17% against EPHB4; -6% against MAP4K4 (HGK); 65% against MAP4K5 (KHS1); -5% against MAPKAPK3; 3% against NEK6. Moreover, the inhibition at 10 µM against RPS6KA1 (RSK1) is 36%; against RPS6KA2 (RSK3), 70%; against SGKL (SGK3), -11%.

“XMD8-92 [Compound 2, reference compound]”: the “EPHB1 % Inhibition” value on EPHB1 (10 µM compound, ATP Km app) is on record as 5.39%. Moreover, the “EPHB4 % Inhibition” value on EPHB4 (10 µM compound, ATP Km app) is 29%. Also, at MAP4K4 (HGK) (10 µM compound, ATP Km app), the “MAP4K4 (HGK) % Inhibition” value came out at 84%. At MAP4K5 (KHS1) (10 µM compound, ATP Km app), the “MAP4K5 (KHS1) % Inhibition” value amounted to 85%. Moreover, at MAPKAPK3 (10 µM compound, ATP Km app), the “MAPKAPK3 % Inhibition” value is 96%. On NEK6 (10 µM compound, ATP Km app), the “NEK6 % Inhibition” value was determined as 68%. On RPS6KA1 (RSK1) (10 µM compound, ATP Km app), the “RPS6KA1 (RSK1) % Inhibition” value turned out to be 5.45%. Further, the “RPS6KA2 (RSK3) % Inhibition” value on RPS6KA2 (RSK3) (10 µM compound, ATP Km app) came out at 23%. On SGKL (SGK3) (10 µM compound, ATP Km app), the “SGKL (SGK3) % Inhibition” value came to 96%.

A word on the inhibition: it is the drop in the measured response relative to a control, in per cent.

The values above are taken from article PMC4854315, “Discovery of a novel allosteric inhibitor-binding site in ERK5: comparison with the canonical kinase hinge ATP-binding site” (Acta Crystallographica. Section D, Structural Biology, 2016).
